Patent US8513251B2, “Pyridazinone compounds” (Takeda Pharmaceutical Company Limited, priority 2009, dated 2013)
Structures can show the parent of a compound that is named as a salt. Where two headings read alike, the source gives them in different places.

How the values were obtained:
[1] = target: T1, Human PDE10A enzyme (Homo sapiens, UniProt Q9Y233); assay: PDE enzyme inhibition, SPA (Scintillation Proximity Assay); assay type: biochemical; settings: for inhibition at 1 µM: compound at 1 μM, read-out: Percent inhibition (1 μM); for IC50: human PDE10A, [3H]cGMP substrate; for inhibition at 0.1 µM: read-out: Percent inhibition (0.1 μM)
T1 construct: Human PDE10A enzyme was generated from Sf9 or COS-7 cells transfected with the full-length gene; His-tag; made in house; host or cells: Sf9 or COS-7 cells
T1 sequence (Q9Y233 267-1055): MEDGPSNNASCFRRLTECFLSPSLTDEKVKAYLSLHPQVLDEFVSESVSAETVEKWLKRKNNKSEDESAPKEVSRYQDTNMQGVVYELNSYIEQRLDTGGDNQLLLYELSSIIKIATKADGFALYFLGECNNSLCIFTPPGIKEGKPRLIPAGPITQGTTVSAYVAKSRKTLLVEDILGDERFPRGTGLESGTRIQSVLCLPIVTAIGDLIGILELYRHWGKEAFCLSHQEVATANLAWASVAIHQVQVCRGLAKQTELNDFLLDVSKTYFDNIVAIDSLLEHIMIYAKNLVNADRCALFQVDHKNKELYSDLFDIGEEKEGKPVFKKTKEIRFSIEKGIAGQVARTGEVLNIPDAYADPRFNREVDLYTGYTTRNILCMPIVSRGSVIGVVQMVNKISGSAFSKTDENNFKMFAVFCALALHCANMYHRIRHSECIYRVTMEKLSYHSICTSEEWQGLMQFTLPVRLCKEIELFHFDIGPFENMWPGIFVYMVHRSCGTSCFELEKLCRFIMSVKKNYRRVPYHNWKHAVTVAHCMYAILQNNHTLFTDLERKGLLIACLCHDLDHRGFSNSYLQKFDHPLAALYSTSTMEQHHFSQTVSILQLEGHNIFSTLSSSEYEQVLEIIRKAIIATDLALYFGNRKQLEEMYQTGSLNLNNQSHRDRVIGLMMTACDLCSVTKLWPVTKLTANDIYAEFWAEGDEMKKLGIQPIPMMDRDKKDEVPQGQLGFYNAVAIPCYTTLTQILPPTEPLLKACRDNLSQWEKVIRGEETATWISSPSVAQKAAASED
Experimental: Human PDE10A enzyme was generated from Sf9 or COS-7 cells transfected with the full-length gene. Cloned enzyme was extracted from homogenized cell pellets. The extracted enzyme from Sf9 cells was partially purified using His-tag affinity column. The enzyme was stored at −70° C. until use. PDE activity was measured using a SPA (Scintillation Proximity Assay) (GE Healthcare). To evaluate the inhibitory activity, 10 μL of serial diluted compounds were incubated with 20 μL of PDE enzyme in assay buffer (50 mM HEPES-NaOH, 8.3 mM MgCl2, 1.7 mM EGTA, 0.1% BSA (pH 7.4)) for 30 min. at room temperature. Final concentration of DMSO in the assay was 1 percent as compounds were tested in duplicate in 96-well half-area plates (Corning). To start the reaction, 10 μL of substrate [3H] cGMP (25 or 50 nM; enclosed in SPA kits from GE Healthcare or purchased from PerkinElmer, respectively) was added for a final assay volume of 40 μL. After 60 min incubation at room temperature, yttrium SPA beads containing Zinc sulphate were added (20 μL at 6 mg/mL) to terminate the PDE reaction. After being settled for 60 min., assay plates were counted in a scintillation counter (PerkinElmer) to allow calculation of inhibition rate and IC50. Inhibition rate was calculated on the basis of 0% control wells with DMSO and 100% control wells without enzyme.

SMILES	inhibition at 0.1 µM ([1]; Table 2, compound at 0.1 μM) [%]	IC50 ([1]; Table 2) [nM]	further results
COc1cn(-c2ccc(OS(=O)(=O)C(F)(F)F)cc2F)nc(-c2ccnn2-c2ccccc2)c1=O (as salt: methanesulfonate) [Example 93, 3-Fluoro-4-[5-methoxy-4-oxo-3-(1-phenyl-1H-pyrazol-5-yl)pyridazin-1(4H)-yl]phenyl trifluoromethanesulfonate]	–	–	melting point: 108 to 110 °C
N#Cc1ccc(-n2ccc(=O)c(-c3ccnn3-c3ccccc3)n2)cc1 [Example 46, 4-[4-Oxo-3-(1-phenyl-1H-pyrazol-5-yl)pyridazin-1(4H)-yl]benzonitrile]	–	–	inhibition at 1 µM ([1]; Table 1): 97%; IC50 ([1]; Table 1): 10 to 200 nM
O=c1ccn(-c2ccc(S(=O)(=O)N3CCOCC3)cc2)nc1-c1ccnn1-c1ccccc1 [Example 48, 1-[4-(Morpholin-4-ylsulfonyl)phenyl]-3-(1-phenyl-1H-pyrazol-5-yl)pyridazin-4(1H)-one]	–	–	inhibition at 1 µM ([1]; Table 1): 100%; IC50 ([1]; Table 1): < 10 nM
NC(=O)c1ccc(-n2ccc(=O)c(-c3ccnn3-c3ccccc3)n2)cc1 [Example 49, 4-[4-Oxo-3-(1-phenyl-1H-pyrazol-5-yl)pyridazin-1(4H)-yl]benzamide]	–	–	inhibition at 1 µM ([1]; Table 1): 98%; IC50 ([1]; Table 1): < 10 nM
CCOc1cn(-c2cccc(C(F)(F)F)c2)nc(-c2ccnn2-c2ccccc2)c1=O [Example 59, 5-Ethoxy-3-(1-phenyl-1H-pyrazol-5-yl)-1-[3-(trifluoromethyl)phenyl]pyridazin-4(1H)-one]	–	–	inhibition at 1 µM ([1]; Table 1): 96%; IC50 ([1]; Table 1): 10 to 200 nM
COc1cn(-c2ccc(N3CC(F)(F)C3)cc2F)nc(-c2ccnn2-c2ccccc2)c1=O [Example 102, 1-[4-(3,3-Difluoroazetidin-1-yl)-2-fluorophenyl]-5-methoxy-3-(1-phenyl-1H-pyrazol-5-yl)pyridazin-4(1H)-one]	103	< 10	–
COc1cn(-c2ccc(-n3cccn3)cc2F)nc(-c2ccnn2-c2ccccc2)c1=O [Example 120, 1-[2-Fluoro-4-(1H-pyrazol-1-yl)phenyl]-5-methoxy-3-(1-phenyl-1H-pyrazol-5-yl)pyridazin-4(1H)-one]	–	–	inhibition at 0.1 µM [1]: 100%
COc1cn(-c2ccc(-n3cccn3)cc2F)nc(-c2ccnn2-c2cccc(Cl)c2)c1=O [Example 164, 3-[1-(3-Chlorophenyl)-1H-pyrazol-5-yl]-1-[2-fluoro-4-(1H-pyrazol-1-yl)phenyl]-5-methoxypyridazin-4(1H)-one]	101	< 10	–
COc1cn(-c2ccc(N3CC=CC3)cc2F)nc(-c2ccnn2-c2ccccc2)c1=O [Example 179, 1-[4-(2,5-Dihydro-1H-pyrrol-1-yl)-2-fluorophenyl]-5-methoxy-3-(1-phenyl-1H-pyrazol-5-yl)pyridazin-4(1H)-one]	96	< 10	–
COc1cn(-c2ccc(-n3cc(Cl)cn3)cc2F)nc(-c2ccnn2-c2ccccc2)c1=O [Example 180, 1-[4-(4-Chloro-1H-pyrazol-1-yl)-2-fluorophenyl]-5-methoxy-3-(1-phenyl-1H-pyrazol-5-yl)pyridazin-4(1H)-one]	96	< 10	–
COc1cn(-c2ccc(N3CCC(C)(O)CC3)cc2F)nc(-c2ccnn2-c2ccccc2)c1=O [Example 186, 1-[2-Fluoro-4-(4-hydroxy-4-methylpiperidin-1-yl)phenyl]-5-methoxy-3-(1-phenyl-1H-pyrazol-5-yl)pyridazin-4(1H)-one]	100	< 10	–
COc1cn(-c2ccc(N3CC(C)(C)CC3=O)cc2F)nc(-c2ccnn2-c2ccccc2)c1=O [Example 189, 1-[4-(4,4-Dimethyl-2-oxopyrrolidin-1-yl)-2-fluorophenyl]-5-methoxy-3-(1-phenyl-1H-pyrazol-5-yl)pyridazin-4(1H)-one]	100	< 10	–
COc1cn(-c2ccc(N3CC(C)(C)OC3=O)cc2F)nc(-c2ccnn2-c2ccccc2)c1=O [Example 190, 1-[4-(5,5-Dimethyl-2-oxo-1,3-oxazolidin-3-yl)-2-fluorophenyl]-5-methoxy-3-(1-phenyl-1H-pyrazol-5-yl)pyridazin-4(1H)-one]	100	< 10	–
COc1cc(-n2cccn2)ccc1-n1cc(OC)c(=O)c(-c2ccnn2-c2ccccc2)n1 [Example 192, 5-Methoxy-1-[2-methoxy-4-(1H-pyrazol-1-yl)phenyl]-3-(1-phenyl-1H-pyrazol-5-yl)pyridazin-4(1H)-one]	101	< 10	–

Continued, in another order:

inhibition at 0.1 µM ([1]; Table 2, compound at 0.1 μM) [%]	IC50 ([1]; Table 2) [nM]	SMILES	further results
99	< 10	COc1cn(-c2ccc(N3CCC(F)(F)C3)cc2F)nc(-c2ccnn2-c2ccccc2)c1=O [Example 103, 1-[4-(3,3-Difluoropyrrolidin-1-yl)-2-fluorophenyl]-5-methoxy-3-(1-phenyl-1H-pyrazol-5-yl)pyridazin-4(1H)-one]	–
99	< 10	COc1cn(-c2ccc(N3CC(F)(F)C(F)(F)C3)cc2F)nc(-c2ccnn2-c2ccccc2)c1=O [Example 104, 1-[2-Fluoro-4-(3,3,4,4-tetrafluoropyrrolidin-1-yl)phenyl]-5-methoxy-3-(1-phenyl-1H-pyrazol-5-yl)pyridazin-4(1H)-one]	–
100	< 10	COc1cn(-c2ccc(N3CCC(F)(F)CC3)cc2F)nc(-c2ccnn2-c2ccccc2)c1=O [Example 106, 1-[4-(4,4-Difluoropiperidin-1-yl)-2-fluorophenyl]-5-methoxy-3-(1-phenyl-1H-pyrazol-5-yl)pyridazin-4(1H)-one]	–
103	< 10	COc1cn(-c2ccc(N3CCCC3=O)cc2F)nc(-c2ccnn2-c2ccccc2)c1=O [Example 108, 1-[2-Fluoro-4-(2-oxopyrrolidin-1-yl)phenyl]-5-methoxy-3-(1-phenyl-1H-pyrazol-5-yl)pyridazin-4(1H)-one]	–
99	< 10	COc1cn(-c2ccc(N3CCOC3=O)cc2F)nc(-c2ccnn2-c2ccccc2)c1=O [Example 109, 1-[2-Fluoro-4-(2-oxo-1,3-oxazolidin-3-yl)phenyl]-5-methoxy-3-(1-phenyl-1H-pyrazol-5-yl)pyridazin-4(1H)-one]	–
97	< 10	COc1cn(-c2ccc(-n3ccnc3)cc2F)nc(-c2ccnn2-c2ccccc2)c1=O [Example 111, 1-[2-Fluoro-4-(1H-imidazol-1-yl)phenyl]-5-methoxy-3-(1-phenyl-1H-pyrazol-5-yl)pyridazin-4(1H)-one]	–
99	< 10	COc1cn(-c2cccc(-c3cnn(C)c3)c2F)nc(-c2ccnn2-c2ccccc2)c1=O [Example 113, 1-[2-Fluoro-3-(1-methyl-1H-pyrazol-4-yl)phenyl]-5-methoxy-3-(1-phenyl-1H-pyrazol-5-yl)pyridazin-4(1H)-one]	–
102	< 10	COc1cn(-c2ccc(-c3cnn(C)c3)cc2F)nc(-c2ccnn2-c2ccccc2)c1=O [Example 114, 1-[2-Fluoro-4-(1-methyl-1H-pyrazol-4-yl)phenyl]-5-methoxy-3-(1-phenyl-1H-pyrazol-5-yl)pyridazin-4(1H)-one]	–
99	< 10	COc1cn(-c2ccc(-c3cnn(C(F)F)c3)cc2F)nc(-c2ccnn2-c2ccccc2)c1=O [Example 116, 1-{4-[1-(Difluoromethyl)-1H-pyrazol-4-yl]-2-fluorophenyl}-5-methoxy-3-(1-phenyl-1H-pyrazol-5-yl)pyridazin-4(1H)-one]	–
100	< 10	COc1cn(-c2ccc(-n3cc(F)c(F)c3)cc2F)nc(-c2ccnn2-c2ccccc2)c1=O [Example 119, 1-[4-(3,4-Difluoro-1H-pyrrol-1-yl)-2-fluorophenyl]-5-methoxy-3-(1-phenyl-1H-pyrazol-5-yl)pyridazin-4(1H)-one]	–
99	< 10	COc1cn(-c2ccc(-n3nccc3OC(F)F)cc2F)nc(-c2ccnn2-c2ccccc2)c1=O [Example 123, 1-{4-[5-(Difluoromethoxy)-1H-pyrazol-1-yl]-2-fluorophenyl}-5-methoxy-3-(1-phenyl-1H-pyrazol-5-yl)pyridazin-4(1H)-one]	–
97	< 10	COc1cn(-c2ccc(-n3c(=O)ccn3C(F)F)cc2F)nc(-c2ccnn2-c2ccccc2)c1=O [Example 124, 1-{4-[2-(Difluoromethyl)-5-oxo-2,5-dihydro-1H-pyrazol-1-yl]-2-fluorophenyl}-5-methoxy-3-(1-phenyl-1H-pyrazol-5-yl)pyridazin-4(1H)-one]	–
101	< 10	COc1cn(-c2ccc(-n3cccn3)cc2F)nc(-c2ccnn2-c2ccccc2F)c1=O [Example 163, 3-[1-(2-Fluorophenyl)-1H-pyrazol-5-yl]-1-[2-fluoro-4-(1H-pyrazol-1-yl)phenyl]-5-methoxypyridazin-4(1H)-one]	–
92	< 10	COc1cn(-c2ccc(N3CCN(C)C3=O)cc2F)nc(-c2ccnn2-c2ccccc2)c1=O [Example 178, 1-[2-fluoro-4-(3-methyl-2-oxoimidazolidin-1-yl)phenyl]-5-methoxy-3-(1-phenyl-1H-pyrazol-5-yl)pyridazin-4(1H)-one]	–
